The values below come from patent US8084621B2, “3-Pyrrolo[b]cyclohexylene-2-dihydroindolinone derivatives and uses thereof” (Jiangsu Simcere Pharmaceutical R&D Co. Ltd., priority 2006, dated 2011).

Common to all, as to type: cell-based
The test system of experiment [1] is Human Leukemia Line (K562). Put plainly: Tumor cell proliferation assay (MTT), K562. As to conditions: concentration of 10^−5 mol/L, preliminary screening, 72 hours, read-out: Inhibition rate % K562. The text has this: (§1) The assay used generally is the blue tetrazolium bromide (MTT) method. […] The amount of formazan can be detected by the microplate reader through the absorption value at 570 nm. The amount of formazan product generated is proportional to the number of living cells in the sample, so the OD value may reflect the number of living cells and the ability of a test drug to inhibit or kill cells. The MTT assay may be used in determining the ability of different compounds of the present invention to inhibit one or more cancer cells proliferation. Similar assays can be designed along the same lines for any cancer cell using techniques well known in the art.
(§2) The assay used generally is the blue tetrazolium bromide (MTT) method. […] Intracellular purple formazan salt crystals can be solved in DMSO and the absorption value at 570 nm is detected by the microplate reader, then the number of living cells can be detected indirectly. So MTT assay may be used to determine the ability of a compound of the present invention to inhibit cell proliferation. Similar assays can be designed along the same lines for any cancer cell using techniques well known in the art.
2.2.3 Human Leukemia Line (K562)
(§3) The cells of the 2.2.1, 2.2.2, 2.2.3, 2.2.4, 2.2.5 cultured with RPMI 1640 containing 12% calf serum in the condition of 37° C., 5% CO2.
(§4) 2.3.1 Cell seeding: Trypsinize the cell by 0.05% trypsin-EDTA and add RPMI 1640 medium (DMEM or 5A) containing 12% calf serum. Count the number, then dilute to 1.67×10^4/ml. Add 180 ul/well to the 96 well plate (3000 cells/well).
(§5) 2.3.2 Culture: cells are incubated for 24 hours at 37° C. under 5% CO2.
(§6) 2.3.3 Preliminary screening: The compounds are firstly diluted to 0.1 mol/L with DMSO, and then diluted to three concentrations of 10^−5 mol/L, 10^−6 mol/L and 10^−7 mol/L. Add 20 ul test compounds to the 96 well plate and incubate for 72 hours. Each group has three parallel wells and all experiments repeat three times. Each inhibition ratio is calculated, then an average value of three times is taken as the measured value. 2.3.4 Staining 2.3.4.1 Attached cell: add 20 ul/well MTT to the 96-well plates; incubate for 4 hours in the incubator. Pour out the culture medium in the well and add 100 ul/well DMSO. Shake the plate for 5 min. 2.3.4.2 Suspension cell: add 20 ul/well MTT to the 96-well plates; incubate for 4 hours in the incubator. Add 50 ul/well 20% SDS and incubate for overnight in the incubator. 2.3.5 Reading the plates: read the absorbance A570-A630 with the Infinite M200 microtiter plate reader. Calculate the inhibition ratio of the test compounds. 2.3.6 Secondary screening: the compounds whose inhibition ratio is greater than 50% at the concentrations of 10^−5 mol/L in the preliminary screening will be picked out for Secondary screening. Dilute these compounds to ten concentrations: 10^−5 mol/L, 0.5×10^−5 mol/L, 10^−6 mol/L, 0.8×10^−6 mol/L, 0.6×10^−6 mol/L, 0.4×10^−6 mol/L, 0.2×10^−6 mol/L, 10^−7 mol/L, 0.8×10^−7 mol/L and 0.4×10^−7 mol/L. Add 20 ul test compound solution to the 96 well plate and incubate for 48 hours. Each group has three parallel wells and all experiments repeat for three times. Read the plates and calculate the inhibition ratio according to the preliminary screening method. 2.3.7 Calculate the Inhibition Ratio of Cell Proliferation and the IC50
(§7) According to the inhibition ratio of cell proliferation at the different concentrations of the compound, inhibition ratio of 50% of the test compound is calculated through the logarithm of the concentration of the compound with the Logit [I] linear regression, and an average value of three times is taken as the measured value of a sample.

Experiment [2] deals with Human Hepatocellular Carcinoma Cell Line (HEPG2). Put plainly: Tumor cell proliferation assay (MTT), HEPG2. The conditions noted are these: for inhibition at 10 µM: concentration of 10^−5 mol/L, preliminary screening, 72 hours, read-out: Inhibition rate % HEPG2; for IC50: secondary screening, 48 hours.
Description: as §1, §2
2.2.8 Human Hepatocellular Carcinoma Cell Line (HEPG2);
The cells of 2.2.8, 2.2.9 cultured in DMEM/High glucose medium containing 12% calf serum in the condition of 37° C., 5% CO2.
as §4, §5, §6, §7

Experiment [3] deals with Human Non-Small Cell Lung Cancer Cell Line (A549). Briefly: Tumor cell proliferation assay (MTT), A549. The conditions noted are these: for inhibition at 10 µM: concentration of 10^−5 mol/L, preliminary screening, 72 hours, read-out: Inhibition rate % A549; for IC50: secondary screening, 48 hours.
Description: as §1, §2
2.2.2 Human Non-Small Cell Lung Cancer Cell Line (A549)
as §3, §4, §5, §6, §7

Experiment [4] deals with Human Pancreatic Carcinoma Cell Line (BXPC-3). Put plainly: Tumor cell proliferation assay (MTT), BXPC-3. The conditions noted are these: for inhibition at 10 µM: concentration of 10^−5 mol/L, preliminary screening, 72 hours, read-out: Inhibition rate % BXPC-3; for IC50: secondary screening, 48 hours.
Description: as §1, §2
2.2.6 Human Pancreatic Carcinoma Cell Line (BXPC-3);
(§8) The cells of 2.2.6, 2.2.7 cultured in RPMI 1640 medium containing 12% fetal bovine serum in the condition of 37° C., 5% CO2.
as §4, §5
as §6, with “2.3.6 Secondary screening: the compounds whose inhibition ratio is greater than 50% at the concentrations of 10^−5 mol/L in the preliminary screening will be picked out for Secondary screening.” left out
as §7

In experiment [5] the test system is Human Gastric Cancer Cell Line (BGC). Put plainly: Tumor cell proliferation assay (MTT), BGC. The conditions noted are these: for inhibition at 10 µM: concentration of 10^−5 mol/L, preliminary screening, 72 hours, read-out: Inhibition rate % BGC; for IC50: secondary screening, 48 hours.
Description: as §1, §2
2.2.1 Human Gastric Cancer Cell Line (BGC)
as §3, §4, §5, §6, §7

For experiment [6], the system named is Human Bladder Cancer Cell Line (T24). Put plainly: Tumor cell proliferation assay (MTT), T24. As to conditions: for inhibition at 10 µM: concentration of 10^−5 mol/L, preliminary screening, 72 hours, read-out: Inhibition rate % T24; for IC50: secondary screening, 48 hours.
Description: as §1, §2
2.2.7 Human Bladder Cancer Cell Line (T24);
as §8, §4, §5, §6, §7

Experiment [7] deals with Human Colon Cancer Cell Line (HT-29). Put plainly: Tumor cell proliferation assay (MTT), HT29. As to conditions: for inhibition at 10 µM: concentration of 10^−5 mol/L, preliminary screening, 72 hours, read-out: Inhibition rate % HT29; for IC50: secondary screening, 48 hours.
Description: as §1, §2
2.2.11 Human Colon Cancer Cell Line (HT-29);
(§9) The cells of 2.2.11, 2.2.12, 2.2.13 were cultured in MC COYS 5-A medium containing 12% fetal bovine serum in the condition of 37° C., 5% CO2.
as §4, §5
as §6, with “2.3.6 Secondary screening: the compounds whose inhibition ratio is greater than 50% at the concentrations of 10^−5 mol/L in the preliminary screening will be picked out for Secondary screening.” left out
as §7

The subject of experiment [8] is Human Pancreatic Carcinoma Cells (PANC-1). Put plainly: Tumor cell proliferation assay (MTT), PANC-1. As to conditions: for inhibition at 10 µM: concentration of 10^−5 mol/L, preliminary screening, 72 hours, read-out: Inhibition rate % PANC-1; for IC50: secondary screening, 48 hours.
Description: as §1, §2
2.2.4 Human Pancreatic Carcinoma Cells (PANC-1)
as §3, §4, §5, §6, §7

For experiment [9], the system named is Human Colon Cancer Cell Line (CACO-2). Put plainly: Tumor cell proliferation assay (MTT), CACO-2. As to conditions: concentration of 10^−5 mol/L, preliminary screening, 72 hours, read-out: Inhibition rate % CACO-2.
Description: as §1, §2
2.2.10 Human Colon Cancer Cell Line (CACO-2)
The cell of 2.2.10 cultured in DMEM/High glucose medium containing 12% fetal bovine serum in the condition of 37° C., 5% CO2.
as §4, §5, §6, §7

In experiment [10] the test system is Human Ovarian Cancer Cell Line (SK-OV-3). Put plainly: Tumor cell proliferation assay (MTT), SK-OV-3. The conditions noted are these: for inhibition at 10 µM: concentration of 10^−5 mol/L, preliminary screening, 72 hours, read-out: Inhibition rate % SK-OV-3; for IC50: secondary screening, 48 hours.
Description: as §1, §2
2.2.13 Human Ovarian Cancer Cell Line (SK-OV-3).
as §9, §4, §5, §6, §7

Experiment [11] has as its system Human Small Cell Lung Cancer Cell Line (NCI-H446). Briefly: Tumor cell proliferation assay (MTT), NCI-H446. As to conditions: for inhibition at 10 µM: concentration of 10^−5 mol/L, preliminary screening, 72 hours, read-out: Inhibition rate % NCI-H446; for IC50: secondary screening, 48 hours.
Description: as §1, §2
2.2.5 Human Small Cell Lung Cancer Cell Line (NCI-H446)
as §3, §4, §5, §6, §7

As for `CCOC(=O)c1c(C)[nH]c2c1CCC/C2=C1/C(=O)Nc2ccc(F)cc21` [I-1, ethyl 2-methyl-7-[1,2-dihydro-5-fluoro-2-oxo-3H-indol-(Z)-3-ylidene]-4,5,6,7-tetrahydro-1H-indole-3-carboxylate], the inhibition at 10 µM in [1] came to 28.6%.
For the molecule `Cc1[nH]c2c(c1C(=O)N1CCOCC1)CCC/C2=C1/C(=O)Nc2ccc(F)cc21` [I-10, 2-methyl-3-(morpholine-4-carbonyl)-7-[1,2-dihydro-5-fluoro-2-oxo-3H-indol-(Z)-3-ylidene]-4,5,6,7-tetrahydro-1H-indole], the inhibition at 10 µM in [2] was 43.5%; in experiment [3], 7.64%; in experiment [4], 51.7%; in experiment [5] it was 15.2%; in experiment [6], 27.5%; in experiment [7] it was 30.9%. Moreover, the inhibition at 10 µM in experiment [8] stood at 11.7%; in experiment [9], 0%.
`Cc1[nH]c2c(c1C(=O)N1CCOCC1)CCC/C2=C1/C(=O)Nc2ccc(Cl)cc21` [I-11, 2-methyl-3-(morpholine-4-carbonyl)-7-[1,2-dihydro-5-chloro-2-oxo-3H-indol-(Z)-3-ylidene]-4,5,6,7-tetrahydro-1H-indole]: the inhibition at 10 µM in experiment [2] came to 2.92%; in [6], 0%.
Turning to `Cc1[nH]c2c(c1C(=O)N1CCN(C)CC1)CCC/C2=C1/C(=O)Nc2ccccc21` [I-13, 2-methyl-3-(4-methylpiperazine-1-carbonyl)-7-[1,2-dihydro-2-oxo-3H-indol-(Z)-3-ylidene]-4,5,6,7-tetrahydro-1H-indole], the inhibition at 10 µM amounted to 46% in experiment [2]; 3.82% in experiment [3]; 42.4% in experiment [4]; 11.1% in experiment [5]; 9.04% in experiment [6]; 63.2% in experiment [7]. In addition, the figures for the inhibition at 10 µM in [8] and in experiment [9] were 0% and 9.79%, respectively.
In the case of `Cc1[nH]c2c(c1C(=O)N(C)C)CCC/C2=C1/C(=O)Nc2ccccc21` [I-15, N,N,2-trimethyl-7-[1,2-dihydro-2-oxo-3H-indol-(Z)-3-ylidene]-4,5,6,7-tetrahydro-1H-indole-3-carboxamide], the inhibition at 10 µM in experiment [2] was found to be 61.1%; in experiment [6], 74.8%.
On to `CCN(CC)CC(O)CNC(=O)c1c(C)[nH]c2c1CCC/C2=C1/C(=O)Nc2ccc(Cl)cc21` (stereo not drawn) [I-65, N-(3-(diethylamino)-2-hydroxypropyl)-2-methyl-7-[1,2-dihydro-5-chloro-2-oxo-3H-indol-(Z)-3-ylidene]-4,5,6,7-tetrahydro-1H-indole-3-carboxamide], for which the inhibition at 10 µM in experiment [2] came out at 100%; in experiment [3], 85%; in experiment [4], 99.2%; in [5], 91.1%; in [6], 97.9%; in experiment [7], 98.3%. In addition, the inhibition at 10 µM was found to be 98.1% in [8], 95.7% in experiment [10] and 99% in experiment [11]. For the same molecule, the IC50 in experiment [2] is 2.8 µM; in experiment [3], 2.38 µM; in [4], 1.15 µM; in [5], 1.72 µM; in experiment [6] it was 2.73 µM; in experiment [7], 3.06 µM. The IC50 in experiment [8] came out at 1.67 µM; in experiment [10], 2.23 µM; in [11], 1.5 µM.
Consider `Cc1[nH]c2c(c1C(=O)NCC(O)CN1CCCCC1)CCC/C2=C1/C(=O)Nc2ccc(Cl)cc21` (stereo not drawn) [I-75, N-(2-hydroxy-3-(piperidin-1-yl)propyl)-2-methyl-7-[1,2-dihydro-5-chloro-2-oxo-3H-indol-(Z)-3-ylidene]-4,5,6,7-tetrahydro-1H-indole-3-carboxamide], for which the inhibition at 10 µM in [2] was 99%; in experiment [3], 40.1%; in [4] it was 73.1%; in experiment [5], 45.4%; in [6], 99.9%; in experiment [7], 67.3%. For the same molecule, the results for the inhibition at 10 µM in [8], in experiment [10] and in experiment [11] were 53.6%, 49.2% and 44.1%, respectively. Also, the IC50 in experiment [2] came out at 3.59 µM; in experiment [3] it was 14.5 µM; in [4], 4.47 µM; in experiment [5], 11.1 µM; in experiment [6] it was 3.99 µM; in [7] it was 5.17 µM. For the same molecule, the IC50 in experiment [8] amounted to 3.58 µM; in experiment [10], 5.69 µM; in experiment [11], 9.25 µM.
